Structures can show the parent of a compound that is named as a salt.
melting point | SMILES
155 to 157 °C | CC(C)(C)OC(=O)N1CCN(C(=O)CCc2ccc(Oc3ccc(NC(=O)c4ccc(Cl)c(Cl)c4)cc3F)cc2)CC1 [compound 464]
117 to 118 °C | COc1ccc(CN2CCCN(c3ccc(Oc4ccc(NC(=O)c5ccc(Cl)c(Cl)c5)cn4)c(C)c3)C2=O)cc1OC [compound 1187]
116 to 118 °C | O=C(Nc1ccc(Oc2ccc(N3CCN(C(=O)c4ccc5c(c4)OCO5)CC3)cc2)cc1)c1ccc(Cl)c(Cl)c1 [compound 2053]
102 to 105 °C | CCN(CC(=O)N1CCN(Cc2ccccc2)CC1)c1ccc(Oc2ccc(NC(=O)c3ccc(Cl)c(Cl)c3)cn2)c(C)c1 [compound 1514]
185 to 189 °C | O=C(C1CCN(c2ccc(Oc3ccc(NS(=O)(=O)c4ccc(Cl)c(Cl)c4)cn3)cc2)CC1)N1CCN(Cc2ccccc2)CC1 [compound 2710, N-(6-{4-[4-(4-benzylpiperazine-1-carbonyl)piperidin-1-yl]phenoxy}pyridin-3-yl)-3,4-dichlorobenzenesulfonamide]
133 to 135 °C | Cc1cc(N(C)CC(=O)N2CCN(C(=O)c3ccc4c(c3)OCO4)CC2)ccc1Oc1ccc(NC(=O)c2ccc(Cl)c(Cl)c2)cn1 [compound 2054]
150 to 165 °C | CC(=O)N(c1ccc(CCC(=O)N2CCN(Cc3ccc4c(c3)OCO4)CC2)cc1)c1ccc(NC(=O)c2ccc(Cl)c(Cl)c2)cn1 [compound 2099, N-[6-(Acetyl{4-[3-oxo-3-(4-piperonylpiperazin-1-yl)propyl]phenyl}amino)pyridin-3-yl]-3,4-dichlorobenzamide]
153 to 155 °C | O=C(Nc1ccc(Oc2ccc(CCC(=O)N3CCN(c4cccnc4)CC3)cc2)cc1)c1ccc(Cl)c(Cl)c1 [compound 466]
116.5 to 118 °C | Cc1cc(N(C)CC(=O)N2CCN(Cc3ccoc3)CC2)ccc1Oc1ccc(NC(=O)c2ccc(Cl)c(Cl)c2)cn1 [compound 718]
191 to 192 °C | O=C(Nc1ccc(Oc2ccc(N3CCN(S(=O)(=O)c4ccccc4)CC3)cc2)cc1)c1ccc(Cl)c(Cl)c1 [compound 2031, N-{4-[4-(4-benzenesulfonylpiperazin-1-yl)phenoxy]phenyl}-3,4-dichlorobenzamide]
216 to 217 °C | CC(=O)N(CC(=O)N1CCN(Cc2ccc3c(c2)OCO3)CC1)c1ccc(Oc2ccc(NC(=O)c3ccc(Cl)c(Cl)c3)cn2)c(C)c1 [compound 725]
157 to 160 °C | CN(C(=O)CN1CCOCC1)C1CCN(c2ccc(Oc3ccc(NC(=O)c4ccc(Cl)c(Cl)c4)cc3)cc2)CC1 [compound 2572]
183 to 185 °C | O=C(Nc1ccc(Oc2ccc(CCC(=O)N3CCN(c4cccnc4)CC3)cc2)c(F)c1)c1ccc(Cl)c(Cl)c1 [compound 467]
195 to 197 °C | O=C(Nc1ccc(Oc2ccc(C3=CCN(C(=O)CN4CCOCC4)CC3)cc2)cc1)c1ccc(Cl)c(Cl)c1 [compound 2565]
110 to 111 °C | Cc1cc(N(C)CC(=O)N2CCN(Cc3ccccc3)CC2)ccc1Oc1ccc(NC(=O)c2ccc(C(F)(F)F)cc2)cn1 [compound 1515]
169 to 170 °C | O=C(Nc1ccc(Oc2ccc(C(O)CN3CCOCC3)cc2)c(F)c1)c1ccc(Cl)c(Cl)c1 (stereo not shown) [compound 2715, 3,4-dichloro-N-{3-fluoro-4-[4-(1-hydroxy-2-morpholine-4-ylethyl)phenoxy]phenyl}benzamide]
199 to 201 °C | CN(CC(=O)N1CCN(Cc2ccc3c(c2)OCO3)CC1)c1ccc(Oc2ccc(NC(=O)c3ccc(Cl)c(Cl)c3)cn2)c(F)c1 [compound 729]
183 to 185 °C (dec.) | Cc1cc(N(C)CC(=O)N2CCN(Cc3ccc4c(c3)OCO4)CC2)ccc1Oc1ccc(NC(=O)c2ccc(Cl)c(Cl)c2)cn1 (as salt: hydrochloride) [compound 1512]
169 to 171 °C | O=C(Nc1ccc(Oc2ccc(C3=CCN(CCCn4ccnc4)CC3)cc2)cc1)c1ccc(Cl)c(Cl)c1 [compound 2486, 3,4-Dichloro-N-(4-{4-[1-(3-imidazole-1-ylpropyl)-1,2,3,6-tetrahydropyridine-4-yl]phenoxy}phenyl)-benzamide]
177 to 178 °C | O=C(Nc1ccc(Oc2ccc(N3CCN(C(=O)CN4CCOCC4)CC3)cc2)cc1)c1ccc(Cl)c(Cl)c1 [compound 2559]
189 to 192 °C | O=C(Nc1ccc(Oc2ccc(C(=O)N3CCOCC3)cc2)cc1)c1ccc(Cl)c(Cl)c1 [Example No. 10]
222 to 224 °C | O=C(Nc1ccc(Oc2ccc(C(=O)N3CCN(c4ccccn4)CC3)cc2)nc1)c1ccc(C(F)(F)F)cc1 [compound 176]
142 to 145 °C | O=C(Nc1ccc(Oc2ccc(C(O)CN3CCOCC3)cc2)c(F)c1)c1ccc(Cl)c(Cl)c1 (stereo not shown) [compound 2677]
177 to 178 °C | O=C(CN1CCOCC1)c1ccc(Oc2ccc(NC(=O)c3ccc(Cl)c(Cl)c3)cc2F)cc1 [compound 2563]
203 to 204 °C | O=C(Nc1ccc(Oc2ccc(C(=O)N3CCOCC3)cc2)c(F)c1)c1ccc(Cl)c(Cl)c1 [Example No. 11]
203 to 204 °C | O=C(Nc1ccc(Oc2ccc(N3CCN(Cc4ccccc4)C3=O)cc2)nc1)c1ccc(C(F)(F)F)cc1 [compound 1181]
186 to 187 °C | O=C(Nc1ccc(Oc2ccc(N3CCN(Cc4ccccc4)C3=O)cc2)nc1)c1ccc(Cl)c(Cl)c1 [compound 1182]

The remaining lines, values behind:

SMILES | melting point
Cc1cc(N2CCC(CC(=O)N3CCN(Cc4ccc5c(c4)OCO5)CC3)CC2)ccc1Oc1ccc(NS(=O)(=O)c2ccc(C(F)(F)F)cc2)cn1 [compound 2703, N-[6-(4-{4-[2-(4-piperonylpiperazin-1-yl)-2-oxoethyl]piperidin-1-yl}-2-methylphenoxy)pyridin-3-yl]-4-trifluoromethylbenzenesulfonamide] | 156 to 158 °C
CCOC(=O)c1ccc(N2CCCN(c3ccc(Oc4ccc(NC(=O)c5ccc(C(F)(F)F)cc5)cn4)c(C)c3)C2=O)cc1 [compound 1188] | 160 to 161 °C
CN(CC(=O)N1CCN(Cc2ccc3c(c2)OCO3)CC1)c1ccc(Oc2ccc(NC(=O)c3ccc(C(F)(F)F)cc3)cn2)c(F)c1 [compound 776] | 220 to 221 °C
Br.CN(CC(=O)N1CCN(Cc2ccc3c(c2)OCO3)CC1)c1cc(F)c(Oc2ccc(C(=O)Nc3ccc(C(F)(F)F)cc3)cn2)cc1F [compound 1037, 6-(4-{[2-(4-Piperonylpiperazin-1-yl)-2-oxoethyl]methylamino}-2,5-difluorophenoxy)-N-(4-trifluoromethylphenyl)nicotinamide hydrobromide] | 224.5 to 226 °C
CCN(CC(=O)N1CCN(Cc2ccc3c(c2)OCO3)CC1)c1ccc(Oc2ccc(NS(=O)(=O)c3ccc(C(F)(F)F)cc3)cn2)c(F)c1 [compound 2712, N-[6-(4-{[2-(4-piperonylpiperazin-1-yl)-2-oxoethyl]ethylamino}-2-fluorophenoxy)pyridin-3-yl]-4-trifluoromethylbenzenesulfonamide] | 177.8 to 180.1 °C
CCN(CC(=O)N1CCN(Cc2ccoc2)CC1)c1ccc(Oc2ccc(NC(=O)c3ccc(C(F)(F)F)cc3)cn2)c(OC)c1 [compound 784] | 174 to 176 °C
CCN(CC(=O)N1CCN(Cc2ccc3c(c2)OCO3)CC1)c1ccc(Oc2ccc(NC(=O)c3ccc(C(F)(F)F)cc3)cn2)c(F)c1 [compound 775] | 170 to 172 °C
CC(=O)N(CC(=O)N1CCN(Cc2ccc3c(c2)OCO3)CC1)c1ccc(Oc2ccc(NC(=O)c3ccc(Cl)c(Cl)c3)cn2)c(F)c1 [compound 730] | 233 to 235 °C
COc1cc(N(C)CC(=O)N2CCN(Cc3ccoc3)CC2)ccc1Oc1ccc(NC(=O)c2ccc(C(F)(F)F)cc2)cn1 [compound 785] | 160 to 164 °C
Cc1cc(N(C)CC(=O)N2CCN(Cc3ccc4c(c3)OCO4)CC2)ccc1Oc1ccc(NC(=O)c2ccc(-n3cccc3)cc2)cn1 [compound 2711, N-[6-(4-{[2-(4-piperonylpiperazin-1-yl)-2-oxoethyl]methylamino}-2-methylphenoxy)pyridin-3-yl]-4-pyrrole-1-ylbenzamide] | 163.1 to 166.5 °C
Cc1cc(N2CCCN(CC(=O)N3CCN(Cc4ccc5c(c4)OCO5)CC3)C2=O)ccc1Oc1ccc(NC(=O)c2ccc(C(F)(F)F)cc2)cn1 [compound 1186] | 182 to 183.5 °C
Cc1cc(N2CCCN(Cc3ccc4c(c3)OCO4)C2=O)ccc1Oc1ccc(NC(=O)c2ccc(C(F)(F)F)cc2)cn1 [compound 1183] | 165 to 166 °C
CCN(CC(=O)N1CCN(Cc2ccccc2)CC1)c1ccc(Oc2ccc(NC(=O)c3ccc(C(F)(F)F)cc3)cn2)c(C)c1 (as salt: maleate) [compound 1513] | 165 to 167 °C
CCN(CC(=O)N1CCN(Cc2ccc3c(c2)OCO3)CC1)c1ccc(Oc2ccc(NS(=O)(=O)c3ccc(Cl)c(Cl)c3)cn2)c(F)c1 [compound 2695, N-[6-(4-{[2-(4-piperonylpiperazin-1-yl)-2-oxoethyl]ethylamino}-2-fluorophenoxy)pyridin-3-yl]-3,4-dichlorobenzenesulfonamide] | 163 to 166 °C
COc1ccc(CN2CCCN(c3ccc(Oc4ccc(NC(=O)c5ccc(C(F)(F)F)cc5)cn4)c(C)c3)C2=O)cc1OC [compound 1185] | 155 to 157 °C
Cc1cc(N2CCN(Cc3ccc4c(c3)OCO4)C2=O)ccc1Oc1ccc(NC(=O)c2ccc(C(F)(F)F)cc2)cn1 [compound 1504, N-{6-[2-methyl-4-(2-oxo-3-piperonylimidazolidin-1-yl)phenoxy]pyridin-3-yl}-4-trifluoromethylbenzamide] | 188 to 189 °C
CN(CC(=O)N1CCN(Cc2ccc3c(c2)OCO3)CC1)c1ccc(Oc2ccc(NS(=O)(=O)c3ccc(Cl)c(Cl)c3)cn2)c(F)c1 [compound 1615, 3,4-dichloro-N-[6-(2-fluoro-4-{methyl[2-oxo-2-(4-piperonylpiperazin-1-yl)ethyl]amino}phenoxy)pyridin-3-yl]benzenesulfonamide] | 185.6 to 187 °C
Cc1cc(N(C)CC(=O)N2CCN(Cc3ccoc3)CC2)ccc1Oc1ccc(NC(=O)c2ccc(C(F)(F)F)cc2)cn1 (as salt: hydrochloride) [compound 792] | 158.5 to 161 °C
CC(=O)N(CC(=O)N1CCN(Cc2ccccc2)CC1)c1ccc(Oc2ccc(NC(=O)c3ccc(C(F)(F)F)cc3)cn2)cc1 [compound 771] | 161 to 162 °C

Reference: patent US8188277B2, “Aromatic compounds for suppressing the generation of collagen” (Otsuka Pharmaceutical Co., Ltd., priority 2004, dated 2012)
